Measured values: US20240309326A1, “Method of Isolating Adipose-Derived Cell Lines and Uses Thereof” (AGENCY FOR SCIENCE, TECHNOLOGY AND RESEARCH, priority 2021, published 2024)

Test system: Ph9F-1x
Assay: Adipogenesis of fish adipose-derived cell line (AdipoRed / Hoechst 33342 staining)
Type: cell-based, Pangasianodon hypophthalmus
Details: for adipogenesis induction efficiency: addition to adipogenesis induction composition (FIGS. 22 and 25)
Experimental: Adipogenesis of adipose-derived cells were induced. The cells were resuspended at cell density of 100,000 cells/ml of complete growth medium and seeded at 100 μl/well into gelatin-coated 96-well flat-bottom black plates. The cells were incubated at 28° C. in a humidified atmosphere containing 5% CO2. […] After 3 and 6 days of adipogenic induction, the cells were induced with DMEM, 15% FBS, 0.1% fish serum, 300 U/ml of penicillin, 300 μg/mL of streptomycin, and adipogenic induction cocktail 2, containing 167 nM of insulin. Linoleic acid-oleic acid albumin (LAOA, Sigma-Aldrich), docosahexaenoic acid (DHA, Cayman Chemical), eicosapentaenoic acid (EPA, Cayman Chemical), oleic acid albumin (OAA, Sigma Aldrich), and linoleic acid albumin (LAA, Sigma Aldrich) can also be added to the adipogenic induction cocktail, if required. […] The cells were imaged using N-STORM/TIRF microscope and analysed using NIS-Element software.

[1] = 100 μM vitamin, Essential 6, fish serum, LAOA, IBMX, dexamethasone, after 6 days

Compound	percentage of matured adipocytes [1]	total lipid content [1]	other results
CC(C)(CO)[C@H](O)C(=O)NCCC(=O)O [D-pantothenic acid]	did not significantly enhance	did not significantly enhance	–
CC/C=C\C/C=C\C/C=C\C/C=C\C/C=C\C/C=C\CCC(=O)O [DHA, docosahexaenoic acid]	–	–	nuclei count after adipogenesis (100 μM, final 3 days of adipogenesis): significantly reduced
O=C(O)CCCC[C@@H]1SC[C@@H]2NC(=O)N[C@@H]21 [biotin]	did not significantly enhance	did not significantly enhance	–
O=C1O[C@H]([C@@H](O)CO)C(O)=C1O [vitamin C]	–	–	adipogenesis induction efficiency: no adverse effects
C=C1CC[C@H](O)C/C1=C/C=C1\CCC[C@]2(C)[C@@H]([C@H](C)CCCC(C)C)CC[C@@H]12 [vitamin D3]	did not significantly enhance	did not significantly enhance	total lipid content of matured adipocyte (intensity) (100 μM, 6 days, AdipoRed fluorescence intensity, borderline statistical significance): 3.5×10^9; adipogenesis induction efficiency: no adverse effects
CC(=O)Oc1c(C)c(C)c2c(c1C)CCC(C)(CCC[C@H](C)CCC[C@H](C)CCCC(C)C)O2 (stereo partly drawn) [α-tocopherol acetate]	did not significantly enhance	did not significantly enhance	–
oleic acid albumin [OAA]	–	–	percentage of matured adipocytes (100 μM, 6 days, as compared to LAA): significantly enhanced
